Patent publication US20080208179A1, “METHODS OF INCREASING SKIN PERMEABILITY BY TREATMENT WITH ELECTROMAGNETIC RADIATION” (Reliant Technologies, Inc., priority 2006, published 2008)
Each block holds one compound with its values, some of them ahead of it.

How the values were obtained:
Format in all cases: in vitro ADME
[1] = In vitro permeation of ascorbic acid through fractional laser treated ex vivo human skin (Example 6, 60 μm treatment zone size); details: for Retention Ratio / Total Uptake Ratio: delivery mode not given; for Cumulative permeation / Enhancement ratio (total uptake by treatment/total uptake in control) / Retention / Total uptake: 90 min
Method: In vitro permeation studies were performed on untreated and treated human skin to determine if treatment of the skin with fractional laser radiation increased skin permeability to ascorbic acid. The treatment consisted of exposing the skin in vitro to fractional laser radiation. This study also evaluated the effect of using the laser radiation using the contact delivery mode and the non-contact delivery mode.
Ex vivo skin: All ex vivo laser treatments were performed using a 1550 nm laser system on freshly excised human abdominal skin (Fitzpatrick skin type II).
Laser parameters: Arrays of single mode Gaussian beams of 60 μm 1/e^2 diameter at incidence were delivered to the surface of the skin specimen in each treatment, using contact and non-contact tips. For the contact delivery mode, the laser radiation was delivered through a sapphire window in a contact tip which abutted the specimen. For the non-contact delivery mode, the laser radiation was delivered through a contact tip without the sapphire window; thus, the laser incidence occurred at the air-tissue interface. The laser pulse energies tested for ascorbic acid uptake measurements were 10 and 20 mJ. […]
Ascorbic acid formulation: Topical vitamin C solution contained L-ascorbic acid 15% (VWR International, West Chester, Pa.), ferulic acid 0.5%, and vitamin E 1% buffered to a pH of 3.2±0.2 with triethanolamine (Lin et al, 2005). Ascorbic acid was freshly prepared avoiding light exposure just prior to each experiment.
(§1) Ascorbic acid permeation studies: The uptake studies were carried out using skin permeation systems (LGA, Inc., Berkeley, Calif.) and 500 μm thick skin grafts from freshly excised human abdominal skin. Non-laser treated skin was used as a control. Immediately after laser treatment, each skin sample was mounted on a permeation system whose donor compartment was then filled with ascorbic acid solution (Lee et al, 2003). The entire arrangement was incubated to simulate body temperature. Aliquots were drawn at 5, 10, 15, 30, 60, and 90 min, and quantitatively analyzed for permeated ascorbic acid using high performance liquid chromatography (HPLC). After 90 min, each skin sample was washed thoroughly in saline, weighed, homogenized and centrifuged (Lee et al, 2003). This was followed by HPLC analysis to determine the retained ascorbic acid value. The measured retention was then normalized to the effective area of skin sample through which permeation occurred. Each experiment constituted a total of 5 individual runs (n=5).
(§2) Data analysis: The total uptake was taken as the sum of the permeated and retained ascorbic acid. The permeation values were calculated at each time point and plotted as a cumulative value. The uptake enhancement ratio represents the total ascorbic acid uptake for laser treated skin divided by the total uptake for untreated skin at 90 min.

[2] = In vitro permeation of ascorbic acid through fractional laser treated ex vivo human skin (Example 7, 85 μm spot size); details: for Cumulative permeation / Enhancement ratio (total uptake in treated sample/total uptake in control) / Retention / Total uptake: 90 min; for Normalized cumulative permeation at 10 mJ @ 2000 MTZ/cm2 relative to 20 mJ @ 1000 MTZ/cm2: by 90 min
Method: In vitro permeation studies were performed on untreated and treated human skin to determine if treatment of the skin with fractional laser radiation increased skin permeability to ascorbic acid.
A modified 1550 nm Fraxel® SR laser system was operated as previously described by Bedi et al., Lasers Surg Med, 2007 February; 39(2):145-55. Arrays of single mode Gaussian beams of 85 μm 1/e^2 diameter at incidence were delivered to the surface of the skin specimen in each treatment, using contact and non-contact tips. The contact tip abutted the specimen through a sapphire window through which the laser beam was irradiated. The non-contact tip omitted the sapphire window; thus, the laser incidence occurred at the air-tissue interface. The laser pulse energies tested for ascorbic acid uptake measurements were 10 and 20 mJ. For each 10 mJ treatment, 8 passes at 250 microscopic treatment zones (MTZs) per cm^2 were made at a constant velocity of 1.0 cm per second producing a final spot density of 2000 MTZs per cm^2; for each 20 mJ treatment, 4 passes at 250 microscopic treatment zones (MTZs) per cm^2 were made at a constant velocity of 1.0 cm per second producing a final spot density of 1000 MTZs per cm^2. These pulse energy and spot density combination parameters are similar to those used in a typical clinical NFR™ treatment session. Histologic examination was performed for pulse energies ranging from 6 to 40 mJ at a fixed spot size of 85 μm. The pulse durations ranged from 0.24 to 1.6 msec per pulse.
Topical vitamin C solution contained L-ascorbic acid 15% (VWR International, West Chester, Pa.), ferulic acid 0.5%, and vitamin E 1% buffered to a pH of 3.2±0.2 with triethanolamine (Lin et al, 2005). Ascorbic acid was freshly prepared avoiding light exposure just prior to each experiment.
as §1, with “The uptake” for “Ascorbic acid permeation studies: The uptake”, “and 90 min from the diffusion chamber, and quantitatively” for “and 90 min, and quantitatively”
as §2, with “The” for “Data analysis: The”, “acid over the cross-sectional area of the skin through which uptake occurred.” for “acid.”

[3] = In vitro permeation of 5-Fluorouracil through fractional laser treated ex vivo human skin (Example 8)
Method: In vitro permeation studies were performed on untreated and treated ex vivo human skin to determine if treatment of the skin with fractional laser radiation increased skin permeability to a 0.5% (w/v) 5-Fluorourocil solution. The treatment was conducted using the methods outlined in Examples 6 and 7 using a Fraxel Re:store™ laser system (Reliant Technologies, Mountain View, Calif., USA). The treatment parameters used included a laser pulse energy of 10 mJ, a 60 μm incident optical spot size, and a final spot density of 2000 MTZ/cm^2. The skin graft thickness used was 500 μm. The experiment consisted of a total of 6 individual runs (n=6). The uptake study was conducted using an infinite dose regimen.
The total uptake was taken as the sum of the permeated and retained 5-Fluorouracil. The permeation values were calculated at each time point and plotted as a cumulative value in FIG. 16. Over the course of the study (24 hours), the uptake of 5-Fluorouracil from the untreated skin (control) remained below 0.2 mg/cm^2, while the uptake of 5-Fluorouracil from the laser treated skin approached 1.4 mg/cm^2 after 24 hours.

[4] = 20 mJ, 1000 TZ/cm2, contact mode
[5] = 20 mJ, 1000 TZ/cm2, non-contact mode
[6] = 1550 nm, 60 μm, 20 mJ, contact mode, 1000 TZ/cm2
[7] = 1550 nm, 60 μm, 20 mJ, non-contact mode, 1000 TZ/cm2
[8] = control, non-laser treated skin
[9] = skin group not stated (sentence follows the control value)
[10] = 1550 nm, 85 μm, 10 mJ, contact mode, 2000 MTZ/cm2
[11] = 1550 nm, 85 μm, 20 mJ, contact mode, 1000 MTZ/cm2
[12] = 1550 nm, 85 μm, 20 mJ, non-contact mode, 1000 MTZ/cm2
[13] = 1550 nm, 85 μm, non-contact mode, pulse energy 20 mJ, text b229 prints 10 mJ @ 2000 MTZ/cm2
[14] = 10 mJ, 60 μm spot size, 2000 MTZ/cm2, 0.5% (w/v) solution, n=6

Retention Ratio ([1]; 10 mJ, 1000 TZ/cm2): 1.8
Total Uptake Ratio ([1]; 10 mJ, 1000 TZ/cm2): 2.9
Retention Ratio ([1]; 10 mJ, 2000 TZ/cm2): 2.0
Total Uptake Ratio ([1]; 10 mJ, 2000 TZ/cm2): 4.2
Retention Ratio ([1]; 20 mJ, 500 TZ/cm2): 1.3
Total Uptake Ratio ([1]; 20 mJ, 500 TZ/cm2): 7.0
Retention Ratio (retained by treated skin / retained by control skin) [1, 4]: 2.1
Total Uptake Ratio (treated skin / control skin) [1, 4]: 5.3
Retention Ratio (retained by treated skin / retained by control skin) [1, 5]: 3.8
Total Uptake Ratio (treated skin / control skin) [1, 5]: 9.6
Retention Ratio ([1]; 20 mJ, 1000 TZ/cm2): 3.8
Total Uptake Ratio ([1]; 20 mJ, 1000 TZ/cm2): 9.6
Cumulative permeation over time, non-contact mode compared with contact mode ([1]; 20 mJ, FIG. 12): higher permeation levels
Cumulative permeation [1, 6]: 0.20 ± 0.03 mg
Enhancement ratio (total uptake by treatment/total uptake in control) [1, 6]: 5.3
Retention [1, 6]: 0.13 ± 0.01 mg
Total uptake [1, 6]: 0.42 ± 0.06 mg/cm2
Cumulative permeation [1, 7]: 0.37 ± 0.14 mg
Enhancement ratio (total uptake by treatment/total uptake in control) [1, 7]: 9.6
Retention [1, 7]: 0.24 ± 0.03 mg
Total uptake [1, 7]: 0.77 ± 0.18 mg/cm2
Cumulative permeation [1, 8]: below
Retention [1, 8]: 0.06 ± 0.01 mg
Total uptake [1, 8]: 0.08 ± 0.01 mg/cm2
Share of the total uptake contributed by permeation [1, 9]: ~70%
Share of the total uptake contributed by retention [1, 9]: Approximately 30%
Improvement of uptake in non-contact mode over contact mode at identical laser parameters ([2]; 10 mJ @ 2000 MTZ/cm2): ~4 ×
Improvement of uptake in non-contact mode over contact mode at identical laser parameters ([2]; 20 mJ @ 1000 MTZ/cm2): ~3 ×
Cumulative permeation [2, 10]: 0.49 ± 0.07 mg
Enhancement ratio (total uptake in treated sample/total uptake in control) [2, 10]: 6.6
Retention [2, 10]: 0.22 ± 0.02 mg
Total uptake [2, 10]: 0.90±0.07 mg/cm2
Cumulative permeation [2, 11]: 0.27 ± 0.10 mg
Enhancement ratio (total uptake in treated sample/total uptake in control) [2, 11]: 3.6
Retention [2, 11]: 0.12 ± 0.02 mg
Total uptake [2, 11]: 0.49±0.14 mg/cm2
Cumulative permeation [2, 12]: 0.90 ± 0.27 mg
Enhancement ratio (total uptake in treated sample/total uptake in control) [2, 12]: 10.3
Retention [2, 12]: 0.19 ± 0.02 mg
Total uptake [2, 12]: 1.40±0.31 mg/cm2
Cumulative permeation ([2]; 1550 nm, 85 μm, non-contact mode, pulse energy 20 mJ, text b227 prints 10 mJ @ 2000 MTZ/cm2): 2.41 ± 0.44 mg
Retention ([2]; 1550 nm, 85 μm, non-contact mode, pulse energy 20 mJ, text b228 prints 10 mJ @ 2000 MTZ/cm2): 0.40 ± 0.09 mg
Enhancement ratio (total uptake in treated sample/total uptake in control) [2, 13]: 26.3
Total uptake [2, 13]: 3.58±0.54 mg/cm2
Normalized cumulative permeation at 10 mJ @ 2000 MTZ/cm2 relative to 20 mJ @ 1000 MTZ/cm2 ([2]; contact mode): approximately 2 ×
Total uptake at 2000 MTZ/cm2 relative to 1000 MTZ/cm2 within the respective treatment mode ([2]; contact or non-contact, regardless of pulse energy (10 mJ or 20 mJ)): approximately two or more times
Retention [2, 8]: 0.11 ± 0.01 mg
Total uptake [2, 8]: 0.14±0.01 mg/cm2
Normalized cumulative permeation at 10 mJ @ 2000 MTZ/cm2 relative to 20 mJ @ 1000 MTZ/cm2 ([2]; non-contact mode): more than twice
Permeation measured by HPLC ([2]; non-irradiated ex vivo skin, up to 90 min after application): no permeation
Time until permeation was demonstrated ([2]; skin treated at pulse energies of 10 mJ and 20 mJ, contact mode, FIG. 13): ≤ 5 min
SMILES: O=C1O[C@H]([C@@H](O)CO)C(O)=C1O [ascorbic acid, L-ascorbic acid]
Permeation into the diffusion chamber ([2]; all conditions of laser treatment tested): observed to permeate into the diffusion chamber

Permeation, Ratio ± Standard Deviation [3, 14]: 37.7 ± 10.6
Retention, Ratio ± Standard Deviation [3, 14]: 2.4 ± 0.8
Uptake, Ratio ± Standard Deviation [3, 14]: 20.3 ± 5.3
Uptake ([3]; laser treated skin, 10 mJ, 60 μm, 2000 MTZ/cm2, after 24 hours): ~1.4 mg/cm^2
Uptake ([3]; untreated skin (control), over 24 hours): below 0.2 mg/cm^2
SMILES: O=c1[nH]cc(F)c(=O)[nH]1 [5-Fluorouracil]
